This passage reports Ki, Km and kcat results from paper PMC6097783, “β-N-Acetylglucosaminidase MthNAG from Myceliophthora thermophila C1, a thermostable enzyme for production of N-acetylglucosamine from chitin” (Applied Microbiology and Biotechnology, 2018).

The target in series [1] is T1, MthNAG (Thermothelomyces thermophilus, UniProt G2Q2L6).
T1 construct: gene MYCTH_2294755; full-length GH20 secreted enzyme, 582-residue precursor with 21-residue signal peptide; homologously overexpressed in M. thermophila C1, purified by IEX and SEC, no tag told; most similar to XP_003658680 of strain ATCC 42464
T1 sequence (G2Q2L6 22-582): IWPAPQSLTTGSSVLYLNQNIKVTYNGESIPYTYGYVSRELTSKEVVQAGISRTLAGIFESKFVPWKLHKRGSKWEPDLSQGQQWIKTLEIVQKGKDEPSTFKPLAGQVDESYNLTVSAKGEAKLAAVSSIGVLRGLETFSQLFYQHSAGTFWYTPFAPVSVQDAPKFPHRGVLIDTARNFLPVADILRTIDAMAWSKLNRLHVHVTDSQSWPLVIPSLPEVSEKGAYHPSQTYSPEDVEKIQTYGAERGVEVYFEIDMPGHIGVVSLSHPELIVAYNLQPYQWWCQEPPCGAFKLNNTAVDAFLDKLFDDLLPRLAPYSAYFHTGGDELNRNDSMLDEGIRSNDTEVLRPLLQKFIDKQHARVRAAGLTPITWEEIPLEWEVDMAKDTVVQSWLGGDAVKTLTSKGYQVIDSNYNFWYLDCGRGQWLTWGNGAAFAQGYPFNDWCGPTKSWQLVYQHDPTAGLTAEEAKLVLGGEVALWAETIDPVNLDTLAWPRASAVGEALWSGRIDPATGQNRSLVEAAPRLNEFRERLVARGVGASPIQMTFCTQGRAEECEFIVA
The experiment in a line: substrate inhibition kinetics, released p-nitrophenol at […] nm. To be noted: citrate-phosphate buffer 0.1 M, pH 4, 50 °C. The format is biochemical.

Series [2] addresses T1, MthNAG. Nature of the series: substrate inhibition kinetics, released GlcNAc by HPAEC. The format is biochemical. The settings on record: citrate-phosphate buffer 0.1 M, pH 4.5, 50 °C.
Substrate in the series “purified protein”: CC(=O)N[C@H]1[C@H](Oc2ccc([N+](=O)[O-])cc2)O[C@H](CO)[C@@H](O)[C@@H]1O
The experiment in a line: purified protein. The format is biochemical, Thermothelomyces thermophilus. To be noted: citrate-phosphate buffer 0.1 M, pH 4, 50 °C.

As to `CC(=O)N[C@H]1[C@H](Oc2ccc([N+](=O)[O-])cc2)O[C@H](CO)[C@@H](O)[C@@H]1O` [GlcNAc-pNP, 4-nitrophenyl-N-acetylglucosamine], the Ki at MthNAG [1] is 1960 ± 260 µM. On to `CC(=O)N[C@H]1[C@H](O[C@H]2[C@H](O)[C@@H](NC(C)=O)C(O)O[C@@H]2CO)O[C@H](CO)[C@@H](O)[C@@H]1O` (stereo partly shown) [(GlcNAc)2], for which the Ki at MthNAG [2] came out at 500 ± 110 µM.

B1: MthNAG (Thermothelomyces thermophilus ATCC 42464) (protein)
chain: T1 sequence (G2Q2L6 22-582)
notes: full-length GH20 secreted enzyme, 582-residue precursor with 21-residue signal peptide; homologously overexpressed in M. thermophila C1, purified by IEX and SEC, no tag told; most similar to XP_003658680 of strain ATCC 42464
The Km is the concentration of substrate that gives half-maximal velocity. In general, kcat refers to the number of substrate molecules converted per active site and unit of time at saturation. Consider B1, for which, in the series “purified protein”, the Km amounted to 60 ± 10 µM and the turnover number (kcat) was 14.0 ± 0.7 s⁻¹.
